Assay results reported in patent US8906904B2, “Alkoxy pyrazoles as soluble guanylate cyclase activators” (Boehringer Ingelheim International GmbH, priority 2012, dated 2014).
Converted amounts (≈) assume the structure as drawn.

Assay: Assessment of solubility (McIlvaine buffers, 24 h shake, UPLC-UV)
Format: physicochemical
Conditions: kinetic from dmso stock
Method in brief: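 Compounds from 10 mM DMSO stocks were shaken for 24 h at room temperature in McIlvaine buffers at pH 2.2, 4.5 and 6.8 (2.5% v/v DMSO final), then filtered. Filtrates were quantified by UPLC-UV at 254 nm against a 50:50 acetonitrile/water reference assumed fully dissolved, as a single determination.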

Row | SMILES | solubility at 24 h (pH 2.2, aqueous buffer) [µg/mL] | solubility at 24 h (pH 4.5, aqueous buffer) [µg/mL] | solubility at 24 h (pH 6.8, aqueous buffer) [µg/mL]
1 | Cc1cccc(-c2cccc(-n3ncc(C(=O)O)c3OC(C)C)n2)c1OCc1ccc2c(c1)CCN(C1CCC(F)(F)CC1)C2 [Compound 2] | 110 (≈ 178 µM) | 83 (≈ 135 µM) | 88 (≈ 143 µM)
2 | Cc1cccc(-c2cccc(-n3ncc(C(=O)O)c3OC(C)C)n2)c1OCc1ccc2c(c1)CCN(C1CCOCC1)C2 [Compound 1, 5-isopropoxy-1-(6-{3-methyl-2-[2-(tetrahydro-pyran-4-yl)-1,2,3,4-tetrahydro-isoquinolin-6-ylmethoxy]-phenyl}-pyridin-2-yl)-1H-pyrazole-4-carboxylic acid] | 95 (≈ 163 µM) | 80 (≈ 137 µM) | 87 (≈ 149 µM)
3 | Cc1cccc(-c2cccc(-n3ncc(C(=O)O)c3OC(C)C)n2)c1OCc1ccc2c(c1C)CCN(C(C)C)C2 [Compound 43] | 95 (≈ 171 µM) | 79 (≈ 142 µM) | 82 (≈ 148 µM)
4 | CCOc1c(C(=O)O)cnn1-c1cccc(-c2cccc(C)c2OCc2ccc3c(c2)CCN(C2CC(C)(C)OC(C)(C)C2)C3)n1 [Compound 67] | 90 (≈ 144 µM) | 76 (≈ 122 µM) | 78 (≈ 125 µM)
5 | Cc1cccc(-c2cccc(-n3ncc(C(=O)O)c3OC(C)C)n2)c1OCc1ccc2c(c1C)CCN(C1COC1)C2 [Compound 45] | 82 (≈ 144 µM) | 61 (≈ 107 µM) | 73 (≈ 128 µM)
6 | Cc1cccc(-c2cccc(-n3ncc(C(=O)O)c3OC(C)C)n2)c1OCc1ccc2c(c1C)CCN(CC1(C)COC1)C2 [Compound 46] | 100 (≈ 168 µM) | 82 (≈ 137 µM) | 86 (≈ 144 µM)
7 | COc1c(C(=O)O)cnn1-c1cccc(-c2cccc(C)c2OCc2ccc3c(c2)C(C)(C)CN(C2CCOCC2)C3)n1 [Compound 89] | 130 (≈ 223 µM) | 92 (≈ 158 µM) | 81 (≈ 139 µM)

Further lines, results first:

Row | solubility at 24 h (pH 2.2, aqueous buffer) [µg/mL] | solubility at 24 h (pH 4.5, aqueous buffer) [µg/mL] | solubility at 24 h (pH 6.8, aqueous buffer) [µg/mL] | SMILES
8 | 86 (≈ 142 µM) | 57 (≈ 94.3 µM) | 64 (≈ 106 µM) | CCOc1c(C(=O)O)cnn1-c1cccc(-c2cccc(C)c2OCc2ccc3c(c2)CCN(C(C)CS(C)(=O)=O)C3)n1 (stereo not drawn) [Compound 70]
9 | 110 (≈ 193 µM) | 93 (≈ 163 µM) | 96 (≈ 168 µM) | COc1c(C(=O)O)cnn1-c1cccc(-c2cccc(C)c2OCc2ccc3c(c2)CCN(CC2COCCO2)C3)n1 (stereo not drawn) [Compound 92]
10 | 63 (≈ 106 µM) | 54 (≈ 90.5 µM) | 55 (≈ 92.2 µM) | CCOc1c(C(=O)O)cnn1-c1cccc(-c2cccc(C)c2OCc2ccc3c(c2)CCN(C2CCOC(C)(C)C2)C3)n1 (stereo not drawn) [Compound 66]
11 | 100 (≈ 166 µM) | 81 (≈ 134 µM) | 83 (≈ 138 µM) | Cc1cccc(-c2cccc(-n3ncc(C(=O)O)c3OC(C)C)n2)c1OCc1ccc2c(c1)CCN(CC1CC(F)(F)C1)C2 [Compound 4, 1-(6-{2-[2-(3,3-difluoro-cyclobutylmethyl)-1,2,3,4-tetrahydro-isoquinolin-6-ylmethoxy]-3-methyl-phenyl}-pyridin-2-yl)-5-isopropoxy-1H-pyrazole-4-carboxylic acid]
12 | 100 (≈ 180 µM) | 81 (≈ 146 µM) | 75 (≈ 135 µM) | COc1c(C(=O)O)cnn1-c1cccc(-c2cccc(C)c2OCc2ccc3c(c2C)CCN(CC(C)(C)C)C3)n1 [Compound 30]
13 | 93 (≈ 171 µM) | 73 (≈ 135 µM) | 75 (≈ 138 µM) | COc1c(C(=O)O)cnn1-c1cccc(-c2cccc(C)c2OCc2ccc3c(c2)CCN(CC(C)(C)O)C3)n1 [Compound 33, 1-(6-{2-[2-(2-hydroxy-2-methyl-propyl)-1,2,3,4-tetrahydro-isoquinolin-6-ylmethoxy]-3-methyl-phenyl}-pyridin-2-yl)-5-methoxy-1H-pyrazole-4-carboxylic acid]
14 | 99 (≈ 170 µM) | 81 (≈ 139 µM) | 85 (≈ 146 µM) | Cc1cccc(-c2cccc(-n3ncc(C(=O)O)c3OC(C)C)n2)c1OCc1ccc2c(c1)CCN(CC1(C)COC1)C2 [Compound 40]
15 | 120 (≈ 234 µM) | 96 (≈ 187 µM) | 110 (≈ 215 µM) | COc1c(C(=O)O)cnn1-c1cccc(-c2cccc(C)c2OCc2ccc3c(c2)CN(C2COC2)C3)n1 [Compound 85]
